In ChEMBL document CHEMBL1124713, “Synthesis of N-[N-(4-deoxy-4-amino-10-methylpteroyl)-4-fluoroglutamyl]- gamma-glutamate, an unusual substrate for folylpoly-gamma-glutamate synthetase and gamma-glutamyl hydrolase” (J Med Chem, 1990):

What was measured:
Assay type in all cases: ADME
[1] = Kinetic constant relative(Vmax) was determined in FPGS-catalyzed reaction
[2] = Ratio of relative Vmax to Km was determined
[3] = tested on: FPGS (folylpolyglutamate synthetase); assay: Kinetic constant(Km) was determined in FPGS-catalyzed reaction

Relative Vmax [1] | Ratio [2] | Km [3] [µM] | SMILES
1 | 0.024 | 42 | CN(Cc1cnc2nc(N)nc(N)c2n1)c1ccc(C(=O)N[C@@H](CCC(=O)O)C(=O)O)cc1 [METHOTREXATE]
0.45 | 0.012 | 38 | CN(Cc1cnc2nc(N)nc(N)c2n1)c1ccc(C(=O)NC(CCC(=O)NC(CCC(=O)O)C(=O)O)C(=O)O)cc1 (centres undefined)
0.23 | 0.0023 | 100 | CN(Cc1cnc2nc(N)nc(N)c2n1)c1ccc(C(=O)NC(CC(F)C(=O)NC(CCC(=O)O)C(=O)O)C(=O)O)cc1 (centres undefined)
